Biological target: T1, SIRT1 (Homo sapiens, UniProt Q96EB6)
T1 sequence (Q96EB6 1-747): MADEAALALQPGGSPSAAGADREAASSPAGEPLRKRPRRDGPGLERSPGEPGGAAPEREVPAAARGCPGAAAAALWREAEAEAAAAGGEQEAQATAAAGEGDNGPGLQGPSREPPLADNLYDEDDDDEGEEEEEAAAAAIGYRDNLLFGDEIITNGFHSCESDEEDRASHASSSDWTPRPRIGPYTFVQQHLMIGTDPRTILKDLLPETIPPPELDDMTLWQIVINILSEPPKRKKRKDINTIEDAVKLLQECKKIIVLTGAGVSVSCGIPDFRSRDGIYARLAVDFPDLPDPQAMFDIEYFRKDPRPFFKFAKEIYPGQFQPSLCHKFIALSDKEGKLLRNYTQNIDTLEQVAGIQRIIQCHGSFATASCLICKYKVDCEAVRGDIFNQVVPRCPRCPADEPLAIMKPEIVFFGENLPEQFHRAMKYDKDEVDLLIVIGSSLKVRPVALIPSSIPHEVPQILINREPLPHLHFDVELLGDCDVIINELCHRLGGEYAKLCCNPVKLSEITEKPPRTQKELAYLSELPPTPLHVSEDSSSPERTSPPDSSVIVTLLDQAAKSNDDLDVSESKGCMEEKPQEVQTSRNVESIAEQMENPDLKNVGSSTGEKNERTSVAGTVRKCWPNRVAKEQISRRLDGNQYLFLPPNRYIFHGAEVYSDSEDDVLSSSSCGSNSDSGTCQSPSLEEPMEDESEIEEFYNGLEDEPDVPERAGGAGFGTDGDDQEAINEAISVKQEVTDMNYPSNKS
Assay: Trp mass spectrometry assay of SIRT1 activation (Ac-R-H-K-K(Ac)-W-NH2 peptide)
Format: biochemical
Conditions: Trp peptide 0.5 μM, 120 μM βNAD+, 10 nM SIRT1, 25 min at 25° C.; for Emax: 25 min, read-out: TRP MAX RESP (percent maximum fold activation)
Method: The Trp mass spectrometry assay was conducted as follows. […] The SIRT1 protein was obtained by cloning the SirT1 gene into a T7-promoter containing vector, which was then expressed in BL21(DE3) bacterial cells and purified as described in further detail below. Test compound was added at varying concentrations to this reaction mixture and the resulting reactions were monitored. After the 25 minute incubation with SIRT1, 10 μL of 10% formic acid was added to stop the reaction. The resulting reactions were sealed and frozen for later mass spec analysis. The relative SIRT1 activity was then determined by measuring the amount of O-acetyl-ADP-ribose (OAADPR) formed (or, alternatively, the amount of deacetylated Trp peptide generated) by the NAD-dependent sirtuin deacetylation reaction in the presence of varying concentrations of the test compound versus control reactions lacking the test compound. The degree to which the test agent activated deacetylation by SIRT1 was expressed as EC1.5 (i.e., the concentration of compound required to increase SIRT1 activity by 50% over the control lacking test compound), and Percent Maximum Activation (i.e., the maximum activity relative to control (100%) obtained for the test compound).
This time point was the same as that used for test compounds and, within the linear range, the endpoint represents a change in velocity.
For the above assay, SIRT1 protein was expressed and purified as follows. The SirT1 gene was cloned into a T7-promoter containing vector and transformed into BL21(DE3). The protein was expressed by induction with 1 mM IPTG as an N-terminal His-tag fusion protein at 18° C. overnight and harvested at 30,000×g. Cells were lysed with lysozyme in lysis buffer (50 mM Tris-HCl, 2 mM Tris[2-carboxyethyl]phosphine (TCEP), 10 μM ZnCl2, 200 mM NaCl) and further treated with sonication for 10 min for complete lysis. The protein was purified over a Ni-NTA column (Amersham) and fractions containing pure protein were pooled, concentrated and run over a sizing column (Sephadex S200 26/60 global). The peak containing soluble protein was collected and run on an Ion-exchange column (MonoQ). Gradient elution (200 mM-500 mM NaCl) yielded pure protein. This protein was concentrated and dialyzed against dialysis buffer (20 mM Tris-HCl, 2 mM TCEP) overnight. The protein was aliquoted and frozen at −80° C. until further use.
“NT” means not tested; “ND” means not determinable.

| Compound | Emax (relative to control (100%)) [%] | TRP Activity (EC1.5, concentration of test compound that results in 150% activation of SIRT1) | TRP MAX RESP (percent maximum fold activation) (relative to control (100%)) |
| --- | --- | --- | --- |
| O=C(N[C@H]1C[C@H](O)C1)c1ccc2c(n1)N(C(=O)Nc1ccccn1)[C@H]1CCN2C1 (racemic) [Example 210, (4S)—N7-((1r,3S)-3-hydroxycyclobutyl)-N5-(pyridin-2-yl)-3,4-dihydro-1,4-methanopyrido[2,3-b][1,4]diazepine-5,7(2H)-dicarboxamide] | > 150 | B (EC1.5 1-25 μM) | – |
| O=C(NC(CCO)C(F)(F)F)c1ccc2c(n1)N(C(=O)Nc1ccccn1)[C@H]1CCN2C1 (single isomer, unassigned) [Example 18] | > 150 | A (EC1.5<1 μM) | – |
| O=C(NC1CC1(F)F)c1ccc2c(n1)N(C(=O)Nc1ccccn1)[C@H]1CCN2C1 (single isomer, unassigned) [Example 43] | > 150 | A (EC1.5<1 μM) | – |
| O=C(NC1CC1(F)F)c1ccc2c(n1)N(C(=O)Nc1ccccn1)[C@H]1CCN2C1 (single isomer, unassigned) [Example 44] | – | A (EC1.5<1 μM) | – |
| NC(CNC(=O)c1ccc2c(n1)N(C(=O)Nc1ccccn1)[C@H]1CCN2C1)C(F)(F)F (single isomer, unassigned) [Example 49] | > 150 | B (EC1.5 1-25 μM) | – |
| NC[C@H](NC(=O)c1ccc2c(n1)N(C(=O)Nc1ccccn1)[C@H]1CCN2C1)C(F)(F)F (single isomer, unassigned) [Example 50] | > 150 | A (EC1.5<1 μM) | – |
| O=C(NC(CO)C1CC1)c1ccc2c(n1)N(C(=O)Nc1ccccn1)[C@H]1CCN2C1 (single isomer, unassigned) [Example 58] | > 150 | A (EC1.5<1 μM) | – |
| COCC(NC(=O)c1ccc2c(n1)N(C(=O)Nc1ccccn1)[C@H]1CCN2C1)C1CC1 (single isomer, unassigned) [Example 59] | > 150 | A (EC1.5<1 μM) | – |
| COCC(NC(=O)c1ccc2c(n1)N(C(=O)Nc1ccccn1)[C@H]1CCN2C1)C1CC1 (single isomer, unassigned) [Example 60] | – | A (EC1.5<1 μM) | – |
| Cc1ccc2c(NC(=O)N3c4nc(C(=O)NC5CC5(F)F)ccc4N4CC[C@H]3C4)n[nH]c2n1 (single isomer, unassigned) [Example 65] | > 150 | A (EC1.5<1 μM) | – |
| O=C(N[C@H](CO)C(F)(F)F)c1ccc2c(n1)N(C(=O)Nc1cc(OC[C@H](O)CO)ccn1)[C@H]1CCN2C1 (single isomer, unassigned) [Example 92] | > 150 | A (EC1.5<1 μM) | – |
| CC(NC(=O)c1ccc2c(n1)N(C(=O)Nc1ccccn1)[C@H]1CCN2C1)C1CC1 (single isomer, unassigned) [Example 100] | > 150 | A (EC1.5<1 μM) | – |
| CC(NC(=O)c1ccc2c(n1)N(C(=O)Nc1ccccn1)[C@H]1CCN2C1)C1CC1 (single isomer, unassigned) [Example 101] | – | A (EC1.5<1 μM) | – |
| CC(C#N)NC(=O)c1ccc2c(n1)N(C(=O)Nc1ccccn1)[C@H]1CCN2C1 (single isomer, unassigned) [Example 102] | > 150 | A (EC1.5<1 μM) | – |
| CC(C#N)NC(=O)c1ccc2c(n1)N(C(=O)Nc1ccccn1)[C@H]1CCN2C1 (single isomer, unassigned) [Example 103] | – | A (EC1.5<1 μM) | – |
| O=C(N[C@H](CO)C(F)(F)F)c1ccc2c(n1)N(C(=O)Nc1cnccn1)[C@H]1CCN2C1 (single isomer, unassigned) [Example 119] | > 150 | A (EC1.5<1 μM) | – |
| Cc1ncc(-c2ccnc(NC(=O)N3c4nc(C(=O)N[C@H](CO)C(F)(F)F)ccc4N4CC[C@H]3C4)c2)o1 (single isomer, unassigned) [Example 125] | > 150 | A (EC1.5<1 μM) | – |
| NC(CNC(=O)c1ccc2c(n1)N(C(=O)Nc1cc(OC[C@H](O)CO)ccn1)[C@H]1CCN2C1)C(F)(F)F (single isomer, unassigned) [Example 196] | > 150 | B (EC1.5 1-25 μM) | – |
| Cc1ccc2c(NC(=O)N3c4nc(C(=O)NCC(N)C(F)(F)F)ccc4N4CC[C@H]3C4)n[nH]c2n1 (single isomer, unassigned) [Example 197] | > 150 | B (EC1.5 1-25 μM) | – |
| NC(CNC(=O)c1ccc2c(n1)N(C(=O)Nc1ncccn1)[C@H]1CCN2C1)C(F)(F)F (single isomer, unassigned) [Example 198] | > 150 | B (EC1.5 1-25 μM) | – |
| COCC(O)CNC(=O)c1ccc2c(n1)N(C(=O)Nc1ccccn1)[C@H]1CCN2C1 (single isomer, unassigned) [Example 214] | > 150 | B (EC1.5 1-25 μM) | – |
| Cc1ccc2c(NC(=O)N3c4nc(C(=O)NC5CC5(F)F)ccc4N4CC[C@H]3C4)n[nH]c2n1 (single isomer, unassigned) [Example 221] | – | B (EC1.5 1-25 μM) | A (Fold activation≥150%) |
| NCC(NC(=O)c1ccc2c(n1)N(C(=O)Nc1ccccn1)[C@H]1CCN2C1)C(F)(F)F (single isomer, unassigned) [Example 223] | > 150 | B (EC1.5 1-25 μM) | – |
| Cc1ccc2c(NC(=O)N3c4nc(C(=O)NC[C@@H](N)C(F)(F)F)ccc4N4CC[C@H]3C4)n[nH]c2n1 (single isomer, unassigned) [Example 233] | > 150 | – | – |
| N[C@H](CNC(=O)c1ccc2c(n1)N(C(=O)Nc1ncccn1)[C@H]1CCN2C1)C(F)(F)F (single isomer, unassigned) [Example 235] | > 150 | A (EC1.5<1 μM) | – |
| O=C(NC1CC1(F)F)c1ccc2c(n1)N(C(=O)Nc1ccc(F)cn1)[C@H]1CCN2C1 (single isomer, unassigned) [Example 242] | > 150 | A (EC1.5<1 μM) | – |

— patent US10072011B2, “Substituted bridged urea analogs as sirtuin modulators” (GlaxoSmithKline Intellectual Property (No.2) Limited, priority 2014, dated 2018)
